# Earlier results as cited in US20120209535A1, “METHOD FOR GENERATING BIOMARKER REFERENCE PATTERNS” (BASF Plant Science Company GmbH, priority 2009, published 2012).
# Like-named read-outs stand apart in the source and are kept apart here.
# Tests used:
# bladder = conditions: known effect
# liver = conditions: known effect
# [1] = known effect
SMILES,bladder carcinogen (bladder),liver carcinogen (liver),liver enzyme inducer (liver),immunosuppressant [1],lipid accumulation in the liver (liver),peroxisome proliferation effect (peroxisome proliferation),peroxisome proliferation effect (peroxisome proliferation; expert knowledge and/or literature information)
CC(=O)Nc1ccc2c(c1)Cc1ccccc1-2 [2-Acetylaminofluorene],bladder carcinogen,liver carcinogen,potent liver enzyme inducer,immunosuppressant,–,–,–
CC(=O)Nc1cccc2c1-c1ccccc1C2 [4-acetylaminofluorene],–,no liver carcinogen,weak liver enzyme inducer,immunosuppressant,lipid accumulation in the liver,–,–
CCCCOC(=O)c1ccccc1C(=O)OCCCC [dibutyl phthalate],–,–,–,–,–,have the abovementioned effect,–
Cc1cc(Cl)ccc1O[C@@H](C)C(=O)O [mecoprop-p],–,–,–,–,–,–,have the abovementioned effect
